Publication PMC7960510 (Immunity, 2021)

B1: TMEM161A: full-length protein TMEM161A expressed in HLA-A*02+ 293T cells (protein, UniProt Q9NX61 1-479, looked up)
chain: MAVLGVQLVVTLLTATLMHRLAPHCSFARWLLCNGSLFRYKHPSEEELRALAGKPRPRGRKERWANGLSEEKPLSVPRDAPFQLETCPLTTVDALVLRFFLEYQWFVDFAVYSGGVYLFTEAYYYMLGPAKETNIAVFWCLLTVTFSIKMFLTVTRLYFSAEEGGERSVCLTFAFLFLLLAMLVQVVREETLELGLEPGLASMTQNLEPLLKKQGWDWALPVAKLAIRVGLAVVGSVLGAFLTFPGLRLAQTHRDALTMSEDRPMLQFLLHTSFLSPLFILWLWTKPIARDFLHQPPFGETRFSLLSDSAFDSGRLWLLVVLCLLRLAVTRPHLQAYLCLAKARVEQLRREAGRIEAREIQQRVVRVYCYVTVVSLQYLTPLILTLNCTLLLKTLGGYSWGLGPAPLLSPDPSSASAAPIGSGEDEVQQTAARIAGALGGLLTPLFLRGVLAYLIWWTAACQLLASLFGLYFHQHLAGS
modifications: full-length

How the values were obtained:
Format in all cases: cell-based, human
Jurkat-TCR15 clone = experiment: Stimulation of Jurkat-TCR15 clone; settings: HLA-A*02 context; TCR15 CDR3β […]
[1] = tested on: Jurkat cells expressing TCR2 (Jurkat-TCR2); settings: CD69; T2 cells pulsed with peptide, 2 μM, 18 h
H1395 lung cancer cells = experiment: Cell-mediated cytotoxicity of H1395 lung cancer cells by TCR2 primary T cells; settings: peptide-pulsed A*02+ H1395 cells, TMEM9-mer compared to LMP9-mer
[2] = tested on: Jurkat cells expressing TCR16; settings: HLA-A*02:01, T2 cells pulsed with 9-mers
[3] = tested on: primary T cells expressing TCR2; settings: HLA-A*02+ 293T cells overexpressing full-length protein, 1:1 ratio, 18 h

Molecule | stimulation of Jurkat-TCR2 cells (in words) [1] | also measured
LLGTLVAML | – | stimulation of Jurkat-TCR15 clone (in words) (Jurkat-TCR15 clone): also stimulated the Jurkat-TCR15 clone
LLGGLLTMV [EntS9-mer] | could all stimulate the Jurkat-TCR2 cells | –
CLGGLLTMV [LMP9-mer] | could all stimulate the Jurkat-TCR2 cells | –
ALGGLLTPL [TMEM9-mer] | could all stimulate the Jurkat-TCR2 cells | cell-mediated cytotoxicity (in words) (H1395 lung cancer cells): weaker targets for cell-mediated cytotoxicity compared to those with LMP9-mer; recognition by TCR16 (in words) [2]: recognized TMEM9-mer but not the microbial antigens
KLGGLLTMVGV | stimulated Jurkat cells expressing TCR2 | –
AMGGLLTQLAM | stimulated Jurkat cells expressing TCR2 | –
B1 | – | stimulation of TCR2-T cells by full-length protein (in words) [3]: appearing to be the weakest stimulator
